Reference: PubChem BioAssay AID1259411 (Chemical Carcinogenesis Research Information System (CCRIS), 2018)
The source made the active and inactive calls. No rule for the calls is given here.

Test system: rodent carcinogenicity bioassays, tumor incidence
Experiment: CCRIS carcinogenicity studies
Outline: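 Archive of carcinogenicity, mutagenicity, tumor promotion and tumor inhibition results drawn from journals, NCI reports and other sources, expert-reviewed; covers 1985-2011 and is no longer updated.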

O=C1CN(/N=C/c2ccc([N+](=O)[O-])o2)C(=O)N1
carcinogen call (Species: MOUSE, Strain/Sex: B6C3F1/FEMALE, Route: ORAL, Dose: 0, 1300, 2500 PPM IN FEED FOR 103 WK (STUDY DURATION: 105 WK), Dose: 0, 1300, 2500 PPM IN FEED FOR 103 WK (STUDY DURATION: 105 WK), Tumor Site: Type of Lesion: OVARY: TUBULAR ADENOMA, MIXED TUMOR (BENIGN)): active; positive | carcinogen call (Species: MOUSE, Strain/Sex: B6C3F1/MALE, Route: ORAL, Dose: 0, 1300, 2500 PPM IN FEED FOR 103 WK (STUDY DURATION: 105 WK), Dose: 0, 1300, 2500 PPM IN FEED FOR 103 WK (STUDY DURATION: 105 WK)): inactive; negative | carcinogen call (Species: MOUSE, Strain/Sex: BDF1/FEMALE, Route: ORAL, Dose: 0, 0.075, 0.3% IN DIET BEGINNING AT 9 WK OF AGE AND CONTINUING FOR DURATION OF STUDY (STUDY DURATION: 24 MO), Dose: 0, 0.075, 0.3% IN DIET BEGINNING AT 9 WK OF AGE AND CONTINUING FOR DURATION OF STUDY (STUDY DURATION: 24 MO)): inactive; negative | carcinogen call (Species: MOUSE, Strain/Sex: BDF1/MALE, Route: ORAL, Dose: 0, 0.075, 0.3% IN DIET BEGINNING AT 9 WK OF AGE AND CONTINUING FOR DURATION OF STUDY (STUDY DURATION: 24 MO), Dose: 0, 0.075, 0.3% IN DIET BEGINNING AT 9 WK OF AGE AND CONTINUING FOR DURATION OF STUDY (STUDY DURATION: 24 MO)): inactive; negative | carcinogen call (Species: MOUSE, Strain/Sex: ICR/MALE, FEMALE, Route: TRANSPLACENTAL, Dose: 0, 75 UG/G ADMINISTERED SUBCUTANEOUSLY TO MOTHERS ON DAYS 13, 15 AND 17 OF GESTATION (STUDY DURATION: 33 WK), Tumor Site: Type of Lesion: LUNG: PAPILLARY ADENOMA): active; positive | carcinogen call (Species: MOUSE, Strain/Sex: SWISS/FEMALE, Route: ORAL, Dose: 0, 0.03% IN DIET FOR 441 D, THEN 0.04% IN DIET FOR DURATION OF STUDY (TOTAL AVERAGE DOSE: 58.76 MG/KG) (STUDY DURATION:, Dose: 0, 0.03% IN DIET FOR 441 D, THEN 0.04% IN DIET FOR DURATION OF STUDY (TOTAL AVERAGE DOSE: 58.76 MG/KG) (STUDY DURATION:): inactive; negative | carcinogen call (Species: MOUSE, Strain/Sex: SWISS/FEMALE, Route: ORAL, Dose: 0, 0.06% IN DIET FOR 441 D, THEN 0.075% IN DIET FOR DURATION OF STUDY (TOTAL AVERAGE DOSE: 115.59 MG/KG) (STUDY DURATION, Dose: 0, 0.06% IN DIET FOR 441 D, THEN 0.075% IN DIET FOR DURATION OF STUDY (TOTAL AVERAGE DOSE: 115.59 MG/KG) (STUDY DURATION): inactive; negative | carcinogen call (Species: MOUSE, Strain/Sex: SWISS/FEMALE, Route: ORAL, Dose: 0, 0.13% IN DIET FOR 441 D, THEN 0.155% IN DIET FOR DURATION OF STUDY (TOTAL AVERAGE DOSE: 224.07 MG/KG) (STUDY DURATION, Dose: 0, 0.13% IN DIET FOR 441 D, THEN 0.155% IN DIET FOR DURATION OF STUDY (TOTAL AVERAGE DOSE: 224.07 MG/KG) (STUDY DURATION): inactive; negative | carcinogen call (Species: MOUSE, Strain/Sex: SWISS/MALE, Route: ORAL, Dose: 0, 0.03% IN DIET FOR 441 D, THEN 0.04% IN DIET FOR DURATION OF STUDY (TOTAL AVERAGE DOSE: 43.63 MG/KG) (STUDY DURATION:, Dose: 0, 0.03% IN DIET FOR 441 D, THEN 0.04% IN DIET FOR DURATION OF STUDY (TOTAL AVERAGE DOSE: 43.63 MG/KG) (STUDY DURATION:): inactive; negative | carcinogen call (Species: MOUSE, Strain/Sex: SWISS/MALE, Route: ORAL, Dose: 0, 0.06% IN DIET FOR 441 D, THEN 0.075% IN DIET FOR DURATION OF STUDY (TOTAL AVERAGE DOSE: 83.59 MG/KG) (STUDY DURATION:, Dose: 0, 0.06% IN DIET FOR 441 D, THEN 0.075% IN DIET FOR DURATION OF STUDY (TOTAL AVERAGE DOSE: 83.59 MG/KG) (STUDY DURATION:): inactive; negative | carcinogen call (Species: MOUSE, Strain/Sex: SWISS/MALE, Route: ORAL, Dose: 0, 0.13% IN DIET FOR 441 D, THEN 0.155% IN DIET FOR DURATION OF STUDY (TOTAL AVERAGE DOSE: 181.14 MG/KG) (STUDY DURATION, Dose: 0, 0.13% IN DIET FOR 441 D, THEN 0.155% IN DIET FOR DURATION OF STUDY (TOTAL AVERAGE DOSE: 181.14 MG/KG) (STUDY DURATION, Tumor Site: Type of Lesion: HEMATOPOIETIC SYSTEM: MALIGNANT LYMPHOMA): active; positive | carcinogen call (Species: RAT, Strain/Sex: F344/FEMALE, Route: ORAL, Dose: 0, 600, 1300 PPM IN FEED FOR 103 WK (STUDY DURATION: 105 WK), Dose: 0, 600, 1300 PPM IN FEED FOR 103 WK (STUDY DURATION: 105 WK)): inactive; negative | carcinogen call (Species: RAT, Strain/Sex: F344/MALE, Route: ORAL, Dose: 0, 0.187% IN DIET FOR 104 WK (STUDY DURATION: 104 WK)): inactive; negative | carcinogen call (Species: RAT, Strain/Sex: F344/MALE, Route: ORAL, Dose: 0, 1300, 2500 PPM IN FEED FOR 103 WK (STUDY DURATION: 105 WK), Dose: 0, 1300, 2500 PPM IN FEED FOR 103 WK (STUDY DURATION: 105 WK), Tumor Site: Type of Lesion: KIDNEY: TUBULAR ADENOMA OR CARCINOMA, SUBCUTANEOUS TISSUE: FIBROMA, FIBROMA OR FIBROSARCOMA): active; positive | carcinogen call (Species: RAT, Strain/Sex: SPRAGUE-DAWLEY/FEMALE, Route: ORAL, Dose: 0, 0.188% IN DIET FOR 2 YR (STUDY DURATION: 2 YR), Tumor Site: Type of Lesion: MAMMARY GLAND: FIBROADENOMA): active; positive | carcinogen call (Species: RAT, Strain/Sex: STRAIN-CD/FEMALE, Route: ORAL, Dose: 0, 12, 24, 48 MG/KG BW IN DIET FOR 24 MO (STUDY DURATION: 24 MO), Dose: 0, 12, 24, 48 MG/KG BW IN DIET FOR 24 MO (STUDY DURATION: 24 MO)): inactive; negative | carcinogen call (Species: RAT, Strain/Sex: STRAIN-CD/MALE, Route: ORAL, Dose: 0, 12, 24, 48 MG/KG BW IN DIET FOR 24 MO (STUDY DURATION: 24 MO), Dose: 0, 12, 24, 48 MG/KG BW IN DIET FOR 24 MO (STUDY DURATION: 24 MO)): inactive; negative

Oc1cccc2cccnc12
carcinogen call (Species: MOUSE, Strain/Sex: B6C3F1/FEMALE, Route: ORAL, Dose: 0, 1500, 3000 PPM IN DIET FOR 103 WK, Dose: 0, 1500, 3000 PPM IN DIET FOR 103 WK): inactive; negative | carcinogen call (Species: MOUSE, Strain/Sex: B6C3F1/MALE, Route: ORAL, Dose: 0, 1500, 3000 PPM IN DIET FOR 103 WK, Dose: 0, 1500, 3000 PPM IN DIET FOR 103 WK): inactive; negative | carcinogen call (Species: RAT, Strain/Sex: F344/FEMALE, Route: ORAL, Dose: 0, 1500, 3000 PPM IN DIET FOR 103 WK, Dose: 0, 1500, 3000 PPM IN DIET FOR 103 WK): inactive; negative | carcinogen call (Species: RAT, Strain/Sex: F344/MALE,FEMALE, Route: ORAL, Dose: 0.1% IN DIET FOR 2 YR): inactive; negative | carcinogen call (Species: RAT, Strain/Sex: F344/MALE, Route: ORAL, Dose: 0, 1500, 3000 PPM IN DIET FOR 103 WK, Dose: 0, 1500, 3000 PPM IN DIET FOR 103 WK): inactive; negative

Cc1cc(Cl)ccc1OCC(=O)O
carcinogen call (Species: MOUSE, Strain/Sex: B6C3F1/FEMALE, Route: ORAL, Dose: 0, 20, 100, 500 PPM IN DIET FOR 104 WK (STUDY DURATION: 104 WK), Dose: 0, 20, 100, 500 PPM IN DIET FOR 104 WK (STUDY DURATION: 104 WK)): inactive; negative | carcinogen call (Species: MOUSE, Strain/Sex: B6C3F1/MALE, Route: ORAL, Dose: 0, 20, 100, 500 PPM IN DIET FOR 104 WK (STUDY DURATION: 104 WK), Dose: 0, 20, 100, 500 PPM IN DIET FOR 104 WK (STUDY DURATION: 104 WK)): inactive; negative | carcinogen call (Species: NEWT, Route: IMMERSION, Dose: 0, 100, 200, 400 PPM 4 D/WK FOR 12 MO (STUDY DURATION: 24 MO), Dose: 0, 100, 200, 400 PPM 4 D/WK FOR 12 MO (STUDY DURATION: 24 MO)): inactive; negative | carcinogen call (Species: RAT, Strain/Sex: WISTAR/FEMALE, Route: ORAL, Dose: 0, 20, 80, 320 PPM IN DIET FOR 104 WK (STUDY DURATION: 104 WK), Dose: 0, 20, 80, 320 PPM IN DIET FOR 104 WK (STUDY DURATION: 104 WK)): inactive; negative | carcinogen call (Species: RAT, Strain/Sex: WISTAR/MALE, Route: ORAL, Dose: 0, 20, 80, 320 PPM IN DIET FOR 104 WK (STUDY DURATION: 104 WK), Dose: 0, 20, 80, 320 PPM IN DIET FOR 104 WK (STUDY DURATION: 104 WK)): inactive; negative
